Data on 32 compounds can be found in patent US8354419B2, “Benzimidazole analogues for the treatment or prevention of flavivirus infections” (Vertex Pharmaceuticals Incorporated, priority 2009, dated 2013).

Where only a bound is given, the exact number is not on record here.

In the test the test system is HCV (Ib) RNA replication. In words: Cell-based luciferase reporter HCV (1b) RNA replication assay (replicon cell lines Huh-7 5.2 and ET). On the set-up: species or system Hepatitis C virus. As to conditions: Hepatitis C virus, Huh-7, 96 h, HCV 1b genotype replicon, luciferase readout, 4 days incubation; read-out: EC50_1b. The method, boiled down:
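Compounds were tested at eleven concentrations in duplicate over 4 days at 37 °C, 5% CO2. The cells were luciferase-reporter HCV 1b replicon lines 5.2 (NS5A adaptive mutation) or ET (NS4B mutation). Luminescence of lysates was measured, and IC50s were derived by nonlinear curve fitting.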
With `COC(=O)N[C@H](C(=O)N1CC[C@H](C)[C@H]1c1nc2cc(-c3ccc(-c4ccc5[nH]c([C@@H]6[C@@H](C)CCN6C(=O)[C@@H](NC(=O)OC)C(C)C)nc5c4)cc3)ccc2[nH]1)C(C)C` [Compound 267], the EC50 was no more than 5 nM. Next, `COC(=O)N[C@H](C(=O)N1CCC[C@H]1c1nc2cc(-c3ccc(-c4ccc5nc([C@@H]6CCCN6C(=O)[C@@H](NC(=O)OC)C(C)C)[nH]c5c4)cc3F)ccc2[nH]1)C(C)C` [Compound 9, ((S)-1-{(S)-2-[5-(2-Fluoro-4-{2-[(S)-1-((S)-2-methoxycarbonylamino-3-methyl-butyryl)-pyrrolidin-2-yl]-1H-benzoimidazol-5-yl}-phenyl)-1H-benzoimidazol-2-yl]-pyrrolidine-1-carbonyl}-2-methyl-propyl)-carbamic acid methyl ester]: no more than 5 nM; `COC(=O)N[C@H](C(=O)N1CCC[C@H]1c1nc2cc(-c3ccc(-c4ccc5nc([C@@H]6CCCN6C(=O)[C@@H](NC(=O)OC)C(C)C)[nH]c5c4)cc3OC)ccc2[nH]1)C(C)C` [Compound 8, ((S)-1-{(S)-2-[5-(2-Methoxy-4-{2-[(S)-1-((S)-2-methoxycarbonylamino-3-methyl-butyryl)-pyrrolidin-2-yl]-1H-benzoimidazol-5-yl}-phenyl)-1H-benzoimidazol-2-yl]-pyrrolidine-1-carbonyl}-2-methyl-propyl)-carbamic acid methyl ester]: no more than 5 nM. Consider `COC(=O)N[C@H](C(=O)N1CCC[C@H]1c1nc2cc(N3CCN(c4ccc5nc([C@@H]6CCCN6C(=O)[C@@H](NC(=O)OC)C(C)C)[nH]c5c4)[C@H](C)C3)ccc2[nH]1)C(C)C` [Compound 326], for which the EC50 was no more than 5 nM. To `COC(=O)N[C@H](C(=O)N1C[C@@H](C)C[C@H]1c1nc2cc(-c3cc(C)c(-c4ccc5[nH]c([C@@H]6C[C@H](C)CN6C(=O)[C@@H](NC(=O)OC)C(C)C)nc5c4)cc3C)ccc2[nH]1)C(C)C` [Compound 252] belongs no more than 5 nM. To `CC(C)(C)OC(=O)N1CCN(C(=O)OCc2ccccc2)[C@H](c2nc3cc(C#Cc4ccc5[nH]c([C@@H]6CN(C(=O)OC(C)(C)C)CCN6C(=O)OCc6ccccc6)nc5c4)ccc3[nH]2)C1` [Compound 29, (S)-2-{5-[2-((S)-1-Benzyloxycarbonyl-4-tert-butyloxycarbonyl-piperazin-2-yl)-1H-benzoimidazol-5-ylethynyl]-1H-benzoimidazol-2-yl}-piperazine-1,4-dicarboxylic acid 1-benzyl ester 4-tert-butyl ester] belongs greater than 5000 nM; to `COC(=O)N(C)[C@H](C(=O)N1C[C@@H](C)C[C@H]1c1nc2cc(-c3cc4sc(-c5ccc6[nH]c([C@@H]7C[C@H](C)CN7C(=O)[C@H](C(C)C)N(C)C(=O)OC)nc6c5)cc4s3)ccc2[nH]1)C(C)C` [Compound 260], no more than 5 nM.

As for `COC(=O)N(C)[C@H](C(=O)N1C[C@@H](C)C[C@H]1c1nc2ccc(C#CC#Cc3ccc4nc([C@@H]5C[C@H](C)CN5C(=O)[C@H](C(C)C)N(C)C(=O)OC)[nH]c4c3)cc2[nH]1)C(C)C` [Compound 274], the EC50 was no more than 5 nM.

In the case of `COC(=O)N[C@H](C(=O)N1CCC[C@H]1c1nc2cc(-c3c(C)cc(-c4ccc5nc([C@@H]6CCCN6C(=O)[C@@H](NC(=O)OC)C(C)C)[nH]c5c4)cc3C)ccc2[nH]1)C(C)C` [Compound 149], the EC50 was no more than 5 nM. Next, `COC(=O)N[C@H](C(=O)N1CCC[C@H]1c1nc2cc(-c3csc(-c4ccc5[nH]c([C@@H]6CCCN6C(=O)[C@@H](NC(=O)OC)C(C)C)nc5c4)c3)ccc2[nH]1)C(C)C` [Compound 18, methyl N-[(1S)-1-[(2S)-2-[5-[4-[2-[(2S)-1-[(2S)-2-(methoxycarbonylamino)-3-methyl-butanoyl]pyrrolidin-2-yl]-1H-benzimidazol-5-yl]-2-thienyl]-1H-benzimidazol-2-yl]pyrrolidine-1-carbonyl]-2-methyl-propyl]carbamate]: no more than 5 nM; `COC(=O)N(C(C)C)[C@H](C(=O)N1C[C@@H](C)C[C@H]1c1nc2cc(-c3ccc(-c4ccc5nc([C@@H]6C[C@H](C)CN6C(=O)[C@H](C(C)C)N(C(=O)OC)C(C)C)[nH]c5c4)cc3)ccc2[nH]1)C(C)C` [Compound 279]: no more than 5 nM; `COC(=O)N[C@H](C(=O)N1C[C@@H](C(F)F)C[C@H]1c1nc2cc(-c3ccc(-c4ccc5[nH]c([C@@H]6C[C@H](C(F)F)CN6C(=O)[C@@H](NC(=O)OC)C(C)C)nc5c4)cc3)ccc2[nH]1)C(C)C` [Compound 315]: no more than 5 nM.

As for `COC(=O)N[C@H](C(=O)N1CCC[C@H]1c1nc2cc(C#Cc3ccc4nc([C@@H]5CCCN5C(=O)NC(C)C)[nH]c4c3)ccc2[nH]1)C(C)C` [Compound 122], the EC50 was no more than 5 nM.

Consider `Cn1c([C@@H]2CCCN2C(=O)OC(C)(C)C)nc2cc(-c3ccc(-c4ccc5c(c4)nc([C@@H]4CCCN4C(=O)OC(C)(C)C)n5C)cc3)ccc21` [Compound 225], for which the EC50 is greater than 5000 nM.

Take `COC(=O)N[C@H](C(=O)N1CCC[C@H]1c1nc2cc(-c3ccc(-c4ccc5[nH]c([C@@H]6CCCN6C(=O)[C@@H](NC(=O)OC)C(C)C)nc5c4)c(S(C)(=O)=O)c3)ccc2[nH]1)C(C)C` [Compound 150]: the EC50 is no more than 5 nM. Next, `COCC(=O)N[C@H](C(=O)N1CCC[C@H]1c1nc2ccc(-c3ccc(-c4ccc5nc([C@@H]6CCCN6C(=O)[C@@H](NC(=O)COC)C(C)C)[nH]c5c4)cc3)cc2[nH]1)C(C)C` [Compound 196]: 5 to 5000 nM; `COC(=O)N[C@H](C(=O)N1CCC[C@H]1c1nc2cc(-c3ccc(-c4ccc5nc([C@@H]6CCCN6C(=O)[C@@H](NC(=O)OC)C(C)C)[nH]c5c4)cc3C)ccc2[nH]1)C(C)C` [Compound 7, ((S)-1-{(S)-2-[5-(4-{2-[(S)-1-((S)-2-Methoxycarbonylamino-3-methyl-butyryl)-pyrrolidin-2-yl]-1H-benzoimidazol-5-yl}-2-methyl-phenyl)-1H-benzoimidazol-2-yl]-pyrrolidine-1-carbonyl}-2-methyl-propyl)-carbamic acid methyl ester]: no more than 5 nM.

Turning to `COC(=O)N[C@H](C(=O)N1[C@H](c2nc3cc(-c4ccc(-c5ccc6[nH]c([C@@H]7C[C@@H]8C[C@@H]8N7C(=O)[C@@H](NC(=O)OC)C(C)C)nc6c5)cc4)ccc3[nH]2)C[C@@H]2C[C@@H]21)C(C)C` [Compound 234], the EC50 was no more than 5 nM.

For `CC(=O)N[C@H](C(=O)N1CCC[C@H]1c1nc2cc(C#Cc3ccc4[nH]c([C@@H]5CCCN5C(=O)[C@@H](NC(C)=O)C(C)C)nc4c3)ccc2[nH]1)C(C)C` [Compound 96], the EC50 lay in the range of 5 to 5000 nM. Next, `CC(C)(C)OC(=O)N1CCC[C@H]1c1nc2cc(C#CC#Cc3ccc4[nH]c([C@@H]5CCCN5C(=O)OC(C)(C)C)nc4c3)ccc2[nH]1` [Compound 69]: 5 to 5000 nM; `COC(=O)N[C@H](C(=O)N1C[C@@H](C)C[C@H]1c1nc2cc(-c3ccc(-c4ccc5[nH]c([C@@H]6CC[C@H](C)N6C(=O)[C@@H](NC(=O)OC)C(C)C)nc5c4)cc3)ccc2[nH]1)C(C)C` [Compound 320]: no more than 5 nM.

Consider `COC(=O)N[C@H](C(=O)N1C[C@@H](C)C[C@H]1c1nc2cc(-c3ccc4cc(-c5ccc6[nH]c([C@@H]7C[C@H](C)CN7C(=O)[C@@H](NC(=O)OC)C(C)C)nc6c5)ccc4c3)ccc2[nH]1)C(C)C` [Compound 330], for which the EC50 was no more than 5 nM. On to `COC(=O)NC(C(=O)N1CCC[C@H]1c1nc2cc(-c3ccc(-c4ccc5[nH]c([C@@H]6CCCN6C(=O)C(NC(=O)OC)C(C)(C)F)nc5c4)cc3)ccc2[nH]1)C(C)(C)F` (some centres unmarked) [Compound 180], for which the EC50 was no more than 5 nM. As to `CCC(C)CN1CCC[C@H]1c1nc2cc(C#Cc3ccc4[nH]c([C@@H]5CCCN5CC(C)CC)nc4c3)ccc2[nH]1` (some centres unmarked) [Compound 137], the EC50 was in the range of 5 to 5000 nM. Next, `CCCC/C(=C/c1ccc2[nH]c([C@@H]3CCCN3C(=O)[C@@H](NC(=O)OC)C(C)C)nc2c1)c1ccc2[nH]c([C@@H]3CCCN3C(=O)[C@@H](NC(=O)OC)C(C)C)nc2c1` [Compound 153]: no more than 5 nM. Turning to `COC(=O)N[C@H](C(=O)N1CCC[C@H]1c1nc2cc(C#Cc3ccc4[nH]c([C@@H]5CCCN5C(=O)[C@@H](NC(=O)OC)C5CC5)nc4c3)ccc2[nH]1)C1CC1` [Compound 94], the EC50 was 5 to 5000 nM. Next, `COC(=O)N[C@H](C(=O)N1CCC[C@H]1c1nc2cc(-c3ccsc3-c3ccc4[nH]c([C@@H]5CCCN5C(=O)[C@@H](NC(=O)OC)C(C)C)nc4c3)ccc2[nH]1)C(C)C` [Compound 133]: no more than 5 nM; `COC(=O)N[C@H](C(=O)N1C[C@H](OC(C)(C)C)C[C@H]1c1nc2cc(-c3ccc(-c4ccc5[nH]c([C@@H]6C[C@@H](OC(C)(C)C)CN6C(=O)[C@@H](NC(=O)OC)C(C)C)nc5c4)cc3)ccc2[nH]1)C(C)C` [Compound 25, ((S)-1-{(2S,4R)-4-tert-butoxy-2-[5-(4-{2-[(2S,4R)-4-tert-butoxy-1-((S)-2-methoxycarbonylamino-3-methyl-butyryl)-pyrrolidin-2-yl]-1H-benzoimidazol-5-yl}-phenyl)-1H-benzoimidazol-2-yl]-pyrrolidine-1-carbonyl}-2-methyl-propyl)-carbamic acid methyl ester]: no more than 5 nM. To `COC(=O)N[C@@H](C)C(=O)N1CCC[C@H]1c1nc2cc(C#Cc3ccc4[nH]c([C@@H]5CCCCN5C(=O)OCc5ccccc5)nc4c3)ccc2[nH]1` [Compound 52] belongs no more than 5 nM. To `O=C1CCCCCN1CC(=O)N1CCC[C@H]1c1nc2cc(C#Cc3ccc4[nH]c([C@@H]5CCCN5C(=O)CN5CCCCCC5=O)nc4c3)ccc2[nH]1` [Compound 80] belongs greater than 5000 nM. As for `COC(=O)N[C@H](C(=O)N1C[C@@H](C)C[C@H]1c1nc2cc(-c3ccc(-c4ccc5[nH]c([C@@H]6CC(C)(C)CN6C(=O)[C@@H](NC(=O)OC)C(C)C)nc5c4)cc3)ccc2[nH]1)C(C)C` [Compound 327], the EC50 is no more than 5 nM. Next, `COC(=O)N[C@H](C(=O)N1CC(C)(C)C[C@H]1c1nc2cc(-c3cc4sc(-c5ccc6[nH]c([C@@H]7CC(C)(C)CN7C(=O)[C@@H](NC(=O)OC)C(C)C)nc6c5)cc4s3)ccc2[nH]1)C(C)C` [Compound 325]: no more than 5 nM.
